Patent US20230203063A1, “TRICYCLIC PYRIDONES AND PYRIMIDONES” (Erasca, Inc., priority 2019, published 2023)

target: T1, mutant G12C K-RAS (Homo sapiens, UniProt P01116, G12C); assay: covalent adduct formation (CAF) with mutant G12C K-RAS; type: binding; parameters: covalent adduct formation (CAF): unit not given here; details: Table 1; 10 micromolar, after 60 minutes
T1 construct: made in house; host or cells: E. coli BL21
Experimental: Embodiments disclosed herein are further illustrated by the following examples in Tables 1-4 and the Examples hereinbelow. The Tables indicate the compound number, structure, the observed mass spectral molecular weight peak, and covalent adduct formation (CAF) with a mutant G12C K-RAS after 60 minutes at a concentration of 10 micromolar.

Row | % CAF(60 min) [%] | Structure (SMILES)
1 | 89 | C=CC(=O)N1CCN(c2nc(=O)n3c4c(c(-c5c(O)cccc5F)c(Cl)cc24)OCC3)CC1 [Example 1, 7-(4-acryloylpiperazin-1-yl)-9-chloro-10-(2-fluoro-6-hydroxyphenyl)-2H-[1,4]oxazino[2,3,4-ij]quinazolin-5(3H)-one]

same assay, conditions: Table 2; 10 micromolar, after 60 minutes

Row | % CAF(60 min) [%] | Structure (SMILES)
2 | 0 | C=CC(=O)N1CCN(c2nc(=O)n3c4c(c(-c5c(O)cccc5F)c(Cl)cc24)OC[C@H]3CO)[C@@H](C)C1 [Example 23, (3R,10R)-7-((S)-4-acryloyl-2-methylpiperazin-1-yl)-9-chloro-10-(2-fluoro-6-hydroxyphenyl)-3-(hydroxymethyl)-2H-[1,4]oxazino[2,3,4-ij]quinazolin-5(3H)-one]

same assay, conditions: Table 6; 10 uM, 1 h

Row | % CAF @ 10 uM, 1 h [%] | Structure (SMILES)
3 | 0 | C=CC(=O)N1C[C@H](C)N(c2nc(=O)n3c4c(c(-c5c(O)cccc5F)c(Cl)cc24)OC[C@@H]3CN2CCOCC2)C[C@H]1C (atropisomer, axis not shown) [Example 208, (3R,10R)-7-((2S,5R)-4-acryloyl-2,5-dimethyl-piperazin-1-yl)-9-chloro-10-(2-fluoro-6-hydroxyphenyl)-3-(morpholinomethyl)-2,3-dihydro-5H-[1,4]-oxazino[2,3,4-ij]-quinazolin-5-one]
4 | 0 | C=CC(=O)N1CCN(c2nc(=O)n3c4c(c(-c5c(O)cccc5F)c(Cl)cc24)OC[C@@H]3CN2CCOCC2)[C@@H](C)C1 [Example 195, (3S,10R)-7-((S)-4-acryloyl-2-methylpiperazin-1-yl)-9-chloro-10-(2-fluoro-6-hydroxyphenyl)-3-(morpholinomethyl)-2,3-dihydro-5H-[1,4]oxazino[2,3,4-ij]quinazolin-5-one]
5 | 0 | C=CC(=O)N1C[C@H](C)N(c2nc(=O)n3c4c(c(-c5c(F)cccc5C(F)F)ccc24)OCC3)C[C@H]1C [Example 200, 7-((2S,5R)-4-acryloyl-2,5-dimethylpiperazin-1-yl)-10-(2-(difluoromethyl)-6-fluorophenyl)-2,3-dihydro-5H-[1,4]oxazino[2,3,4-ij]quinazolin-5-one]
6 | 0 | C=CC(=O)N1C[C@H](C)N(c2nc(=O)n3c4c(c(-c5c(C)ccc6[nH]nnc56)ccc24)OCC3)C[C@H]1C [Example 219, 7-((2S,5R)-4-acryloyl-2,5-dimethylpiperazin-1-yl)-10-(5-methyl-1H-benzo[d][1,2,3]triazol-4-yl)-2,3-dihydro-5H-[1,4]oxazino[2,3,4-ij]quinazolin-5-one]
7 | 0 | C=CC(=O)N1C[C@H](C)N(c2nc(=O)n3c4c(c(-c5c(O)cccc5F)c(Cl)cc24)OC[C@H]3CN2CCOCC2)C[C@H]1C (atropisomer, axis not shown) [Example 210, (3R,10R)-7-((2S,5R)-4-acryloyl-2,5-dimethyl-piperazin-1-yl)-9-chloro-10-(2-fluoro-6-hydroxyphenyl)-3-(morpholinomethyl)-2,3-dihydro-5H-[1,4]-oxazino-[2,3,4-ij]-quinazolin-5-one]
8 | 0 | C=CC(=O)N1CCN(c2nc(=O)n3c4c(c(-c5c(O)cccc5F)c(Cl)cc24)OC[C@H]3CN2CCOCC2)[C@@H](C)C1 [Example 199, (3R,10R)-7-((S)-4-aciyloyl-2-methylpiperazin-1-yl)-9-chloro-10-(2-fluoro-6-hydroxyphenyl)-3-(morpholinomethyl)-2,3-dihydro-5H-[1,4]oxazino[2,3,4-ij]quinazolin-5-one]
9 | 0 | C=CC(=O)N1C[C@H](C)N(c2nc(=O)n3c4c(c(-c5c(O)cccc5F)c(Cl)cc24)OC[C@H]3Cn2cccn2)C[C@H]1C (atropisomer, axis not shown) [Example 245, (3R,10R)-3-((1H-pyrazol-1-yl)methyl)-7-((2S,5R)-4-acryloyl-2,5-dimethylpiperazin-1-yl)-9-chloro-10-(2-fluoro-6-hydroxyphen-yl)-2H-[1,4]oxazino-[2,3,4-ij]quinazolin-5(3H)-one]
10 | 100 | C=CC(=O)N1CCN(c2nc(=O)n3c4c(c(-c5c(O)cccc5F)c(Cl)cc24)OC[C@H]3CN2CCOCC2)[C@@H](C)C1 [Example 198, (3R,10S)-7-((S)-4-acryloyl-2-methvlpiperazin-1-yl)-9-chloro-10-(2-fluoro-6-hydroxyphenyl)-3-(morpholinomethyl)-2,3-dihydro-5H-[1,4]oxazino[2,3,4-ij]quinazolin-5-one]

Row | Structure (SMILES) | % CAF @ 10 uM, 1 h [%]
11 | C=CC(=O)N1C[C@H](C)N(c2nc(=O)n3c4c(c(-c5c(C)ccc6[nH]ncc56)c(Cl)cc24)OC[C@@H]3CCCN2C3CCC2COC3)C[C@H]1C [Example 281, (3S,10S)-3-(3-(3-oxa-8-azabicyclo[3.2.1]octan-8-yl)propyl)-7-((2S,5R)-4-acryloyl-2,5-dimethylpiperazin-1-yl)-9-chloro-10-(5-methyl-1H-indazol-4-yl)-2,3-dihydro-5H-[1,4]oxazino [2,3,4-ij] quinazolin-5-one] | 0

same assay, conditions: Table 7; 10 micromolar, after 60 minutes

Row | covalent adduct formation (CAF) | Structure (SMILES)
12 | 87.2 | C=CC(=O)N1CCN(c2nc(=O)n3c4c(c(-c5ccc(F)cc5F)c(Cl)cc24)SC[C@H]3C)[C@@H](C)C1 [Example 99, (3R)-7-((S)-4-acryloyl-2-methylpiperazin-1-yl)-9-chloro-10-(2,4-difluorophenyl)-3-methyl-2H-[1,4]thiazino[2,3,4-ij]quinazolin-5(3H)-one]
13 | 96.5 | C=CC(=O)N1CCN(c2nc(=O)n3c4c(c(-c5ccc(F)cc5F)c(Cl)cc24)SC[C@H]3CCCN2C[C@@H]3C[C@H]2CO3)[C@@H](C)C1 [Example 341, (3R)-3-(3-((1S,4S)-2-oxa-5-azabicyclo[2.2.1]heptan-5-yl)propyl)-7-((S)-4-acryloyl-2-methylpiperazin-1-yl)-9-chloro-10-(2,4-difluorophenyl)-2H-[1,4]thiazino[2,3,4-ij]quinazolin-5 (3H)-one]
14 | 96.7 | C=CC(=O)N1CCN(c2nc(=O)n3c4c(c(-c5c(F)cc(F)cc5F)c(Cl)cc24)SC[C@@H]3CC2CCN(C)CC2)[C@@H](C)C1 [Example 343, (S)-7-((S)-4-acryloyl-2-methylpiperazin-1-yl)-9-chloro-3-((1-methylpiperidin-4-yl)-methyl)-10-(2,4,6-trifluorophenyl)-2H-[1,4]thiazino[2,3,4-ij]-quinazolin-5(3H)-one]
15 | 94.8 | C=CC(=O)N1CCN(c2nc(=O)n3c4c(c(-c5c(F)cc(F)cc5F)c(Cl)cc24)SC[C@H]3CC2CCN(C)CC2)[C@@H](C)C1 [Example 344, (R)-7-((S)-4-acryloyl-2-methylpiperazin-1-yl)-9-chloro-3-((1-methylpiperidin-4-yl)-methyl)-10-(2,4,6-trifluorophenyl)-2H-[1,4]thiazino[2,3,4-ij]-quinazolin-5(3H)-one]
16 | 96.6 | C=CC(=O)N1CCN(c2nc(=O)n3c4c(c(-c5c(F)cc(F)cc5F)c(Cl)cc24)SC[C@H]3CCCN2C[C@@H]3C[C@H]2CO3)[C@@H](C)C1 [Example 339, (R)-3-(3-((1S,4S)-2-oxa-5-azabicyclo-[2.2.1]heptan-5-yl)-propyl)-7-((S)-4-acryloyl-2-methyl-piperazin-1-yl)-9-chloro-10-(2,4,6-trifluorophenyl)-2H-[1,4]thiazino[2,3,4-ij]-quinazolin-5(3H)-one]
